The values below are quoted from earlier work in patent US20130129827A1, “EXTENDED RELEASE PHARMACEUTICAL COMPOSITIONS OF PALIPERIDONE AND PROCESSES OF PREPARATION THEREOF” (RANBAXY LABORATORIES LIMITED, priority 2009, published 2013).

SMILES strings stand for the structures.

The conditions of this data set: background statement, species not given.

In the case of `Cc1nc2n(c(=O)c1CCN1CCC(c3noc4cc(F)ccc34)CC1)CCCC2O` (racemic) [Paliperidone, (±)-3-[2-[4-(6-fluoro-1,2-benzisoxazol-3-yl)-1-piperidinyl]ethyl]-6,7,8,9-tetrahydro-9-hydroxy-2-methyl-4H-pyrido[1,2-a]pyrimidin-4-one], the half-life entry is given as “about a day”.
